Structures are written as SMILES. Bounds are passed on as bounds.

The source of these data is patent US20220324835A1 (Nurix Therapeutics, Inc., priority 2018, published 2022).

For test [1], the system named is T-cell. The experiment in a line: CD25 cell surface staining on T-cells co-stimulated with anti-CD3 and anti-CD28 antibody (Biological Example 2). The note with it: Homo sapiens, T-cell, primary human total T-cells, baseline = anti-CD3/anti-CD28 stimulated cells without inhibitor, read-out: CD25 staining, Anti-CD3/Anti-CD28 stimulation, fold change over baseline; for fold induction at 0.3 µM: 0.3 μM compound; for fold induction at 1 µM: 1 μM compound; for fold induction at 4 µM: 4 μM compound. It is filed as cell-based, human. The procedure, abridged: (§1)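 No assay protocol given; T-cells stimulated with anti-CD3 alone or anti-CD3 plus anti-CD28, with or without Cbl-b inhibitor. Activation read as IL-2 secretion or CD25 surface staining, expressed as fold over baseline from uninhibited cells […].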

Test [2] has as its system T-cell. The experiment in a line: IL-2 secretion from T-cells stimulated with anti-CD3 antibody alone (Biological Example 2). The settings on record: primary human total T-cells, read-out: IL-2 secretion, Anti-CD3 stimulation, fold change over baseline; for fold induction at 1 µM: 1 μM compound; for fold induction at 8 µM: 8 μM compound. The class given is cell-based.
The next test concerns the target Cbl-b (residues 36-427) (Homo sapiens, UniProt Q13191). In words: Cbl-b binding assay (SPR, Biacore T200). The settings on record: 20° C., 1:1 binding model. The method in brief: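 Affinities derived from global 1:1 steady-state or kinetic fits of double-referenced, solvent-corrected SPR data, 20 °C, NeutrAvidin-capture chip. Compound series (top 100 or 50 μM, 8–10 points) injected 50 s, 90–180 s dissociation. Asterisked values used 50 mM instead of 100 mM NaCl and 30 nM Src kinase.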
(Surface plasmon resonance follows binding to a sensor surface in real time, without labels.)

The test system of test [3] is T-cell. In words: IL-2 secretion from T-cells co-stimulated with anti-CD3 and anti-CD28 antibody (Biological Example 2). The class given is cell-based, human. The settings on record: Homo sapiens, T-cell, primary human total T-cells, baseline = anti-CD3/anti-CD28 stimulated cells without inhibitor, read-out: IL-2 secretion, Anti-CD3/Anti-CD28 stimulation, fold change over baseline; for fold induction at 0.3 µM: 0.3 μM compound; for fold induction at 1 µM: 1 μM compound; for fold induction at 4 µM: 4 μM compound. The method in brief: as §1

Test [4] deals with T1, Cbl-b (Homo sapiens, UniProt Q13191). In words: Cbl-b activity assay (Cbl-b inhibition assay), TR-FRET of Cbl-b interaction with UbcH5B-Ub. The class given is biochemical. The settings on record: assay buffer with 100 mM NaCl, 60 nM Src kinase; read-out: Cbl-b activity IC50. The procedure, abridged: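 TR-FRET readout of Cbl-b binding to Bodipy-fluorescein N-terminally labeled Ub conjugated to UbcH5B C85K, measured with compound present. After compound incubation, 60 nM Src kinase with 1 mM ATP and 5 mM MgCl2 (final) was added for 1.5 h, then a further 1 h incubation; asterisked values used 50 mM NaCl buffer and 30 nM Src.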
T1 sequence (Q13191 36-427): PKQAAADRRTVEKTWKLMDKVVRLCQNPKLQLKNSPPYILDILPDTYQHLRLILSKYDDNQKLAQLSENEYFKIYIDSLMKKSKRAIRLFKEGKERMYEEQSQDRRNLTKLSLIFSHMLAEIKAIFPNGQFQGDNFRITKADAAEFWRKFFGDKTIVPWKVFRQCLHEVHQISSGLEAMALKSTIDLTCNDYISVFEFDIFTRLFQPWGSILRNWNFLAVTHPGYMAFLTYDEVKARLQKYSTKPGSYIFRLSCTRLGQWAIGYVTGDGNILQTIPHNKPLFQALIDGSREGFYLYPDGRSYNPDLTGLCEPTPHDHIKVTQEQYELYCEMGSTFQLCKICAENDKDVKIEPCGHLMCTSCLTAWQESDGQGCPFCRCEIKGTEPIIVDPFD
(In general: Time-resolved FRET reads energy transfer from a long-lived donor to a nearby acceptor.)

The subject of test [5] is T-cell. The experiment in a line: CD25 cell surface staining on T-cells stimulated with anti-CD3 antibody alone (Biological Example 2). The class given is cell-based. The note with it: primary human total T-cells, baseline = anti-CD3/anti-CD28 stimulated cells without inhibitor, read-out: CD25 staining, Anti-CD3 stimulation, fold change over baseline; for fold induction at 1 µM: 1 μM compound; for fold induction at 8 µM: 8 μM compound.

Test [6] deals with T1, Cbl-b. In words: Cbl-b inhibition assay (Cbl-b activity assay, FRET, Biological Example 1; 100 mM NaCl, 60 nM Src kinase). The note with it: upper bound stated in text lists; read-out: IC50 values in the Cbl-b inhibition assay of Biological Example 1. The class given is biochemical. The procedure, abridged: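 Steps: Src kinase phosphorylates N-terminal biotinylated Avi-tagged Cbl-b; phosphorylated Cbl-b binds Bodipy-fluorescein ubiquitin-loaded UbcH5B; streptavidin-terbium on Cbl-b sits close to the fluorescein label, producing FRET. Inhibitors block UbcH5B-Ub binding.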

Chain of Cbl-b (residues 36-427) (Q13191 36-427): as above

The Kd is the equilibrium constant for the complex coming apart. By IC50 is commonly meant the concentration that gives 50% inhibition. `Cc1c[nH]nc1C[C@@H](C)c1cccc(N2Cc3c(cc(C(=O)N4CCC(O)C4)cc3C(F)(F)F)C2=O)c1` (stereo in doubt) [Compound 463, 6-((S)-3-hydroxypyrrolidine-1-carbonyl)-2-(3-((R)-1-(4-methyl-1H-pyrazol-3-yl)propan-2-yl)phenyl)-4-(trifluoromethyl)isoindolin-1-one]: the fold induction at 0.3 µM with T-cell [1] is 1.01 to 1.3; in the test on T-cell [3] it was 1.01 to 2.5. Also, the fold induction at 1 µM in the test on T-cell [1] fell in the range of 1.01 to 1.3; in the test with T-cell [2] it was 0.101 to 0.15; in the test on T-cell [3] it was 2.51 to 5; in the test with T-cell [5] it was 0.801 to 1. Besides, the fold induction at 4 µM is 1.31 to 1.5 in the test with T-cell [1] and more than 7.5 in the test on T-cell [3]. Further, the fold induction at 8 µM in the test with T-cell [2] is more than 0.201; in the test with T-cell [5], more than 1. The compound further yielded a Kd at Cbl-b (residues 36-427) of less than 100 nM. The values for the IC50 on Cbl-b [4] and at Cbl-b [6] were less than 100 nM and not above 100 nM, respectively.
In the case of `Cn1cnnc1[C@H](F)C(C)(F)c1cccc(N2Cc3c(cccc3C(F)(F)F)C2=O)c1` (stereo in doubt) [Compound 479, 2-(3-((1S,2S)-1,2-difluoro-1-(4-methyl-4H-1,2,4-triazol-3-yl)propan-2-yl)phenyl)-4-(trifluoromethyl)isoindolin-1-one], the figures for the fold induction at 0.3 µM in the test with T-cell [1] and in the test with T-cell [3] were 1.01 to 1.3 and 1.01 to 2.5, respectively. Besides, the fold induction at 1 µM with T-cell [1] was 1.01 to 1.3; in the test with T-cell [2], less than 0.05; in the test with T-cell [3] it was 1.01 to 2.5; in the test on T-cell [5], 0.601 to 0.8. Further, the fold induction at 4 µM in the test with T-cell [1] lay in the range of 1.01 to 1.3; in the test on T-cell [3], 1.01 to 2.5. In addition, the fold induction at 8 µM was in the range of 0.101 to 0.15 with T-cell [2] and 0.801 to 1 in the test on T-cell [5]. Further, the Kd at Cbl-b (residues 36-427) was in the range of 100 to 300 nM. Further, the IC50 was less than 100 nM at Cbl-b [4] and not above 100 nM on Cbl-b [6].
As for `C[C@H](CO)Nc1cc([C@H](C)Cc2nncn2C)cc(N2Cc3c(cccc3C(F)(F)F)C2=O)n1` [Compound 366, 2-(6-((R)-1-hydroxypropan-2-ylamino)-4-((R)-1-(4-methyl-4H-1,2,4-triazol-3-yl)propan-2-yl)pyridin-2-yl)-4-(trifluoromethyl)isoindolin-1-one], the results for the fold induction at 0.3 µM in the test on T-cell [1] and in the test on T-cell [3] were 1.01 to 1.3 and 1.01 to 2.5, respectively. The fold induction at 1 µM was in the range of 1.01 to 1.3 in the test on T-cell [1], 0.051 to 0.1 in the test with T-cell [2], 2.51 to 5 with T-cell [3] and 0.801 to 1 in the test on T-cell [5]. The fold induction at 4 µM was in the range of 1.31 to 1.5 with T-cell [1] and 5 to 7.5 with T-cell [3]. Further, the fold induction at 8 µM in the test with T-cell [2] was more than 0.201; in the test with T-cell [5], more than 1. The compound also yielded a Kd on Cbl-b (residues 36-427) of 100 to 300 nM. The 50% inhibitory concentration (IC50) on Cbl-b [4] is 100 to 300 nM; on Cbl-b [6], not above 300 nM.
Regarding `Cc1conc1C[C@@H](C)c1cccc(N2Cc3c(cccc3C(F)(F)F)C2=O)c1` [Compound 367a, (R)-2-(3-(1-(4-Methylisoxazol-3-yl)propan-2-yl)phenyl)-4-(trifluoromethyl)isoindolin-1-one], the fold induction at 0.3 µM in the test on T-cell [1] was 1.01 to 1.3; in the test on T-cell [3], less than 1. Moreover, the fold induction at 1 µM is less than 1 in the test on T-cell [1], 0.051 to 0.1 with T-cell [2], less than 1 in the test on T-cell [3] and 0.601 to 0.8 in the test with T-cell [5]. Moreover, the fold induction at 4 µM in the test with T-cell [1] lay within 1.01 to 1.3; in the test on T-cell [3] it was 1.01 to 2.5. Moreover, the fold induction at 8 µM in the test with T-cell [2] was 0.151 to 0.2; with T-cell [5], 0.801 to 1. The dissociation constant Kd at Cbl-b (residues 36-427) fell in the range of 1000 to 3000 nM. Also, the IC50 at Cbl-b [4] is 100 to 300 nM; on Cbl-b [6], not above 300 nM.
For the compound `C[C@H](Cc1nncn1C)c1cccc(N2Cc3c(cc(C4CC4)nc3C3CC3)C2=O)c1` [Compound 370, 4,6-dicyclopropyl-2-{3-[(2R)-1-(4-methyl-1,2,4-triazol-3-yl)propan-2-yl]phenyl}-3H-pyrrolo[3,4-c]pyridin-1-one], the fold induction at 0.3 µM in the test with T-cell [1] was 1.01 to 1.3; in the test with T-cell [3] it was 1.01 to 2.5. Also, the fold induction at 1 µM in the test with T-cell [1] lay in the range of 1.01 to 1.3; in the test with T-cell [2], 0.051 to 0.1; with T-cell [3], 1.01 to 2.5; in the test with T-cell [5], 0.601 to 0.8. Also, the fold induction at 4 µM was more than 1.76 in the test on T-cell [1] and 5 to 7.5 in the test on T-cell [3]. The fold induction at 8 µM in the test on T-cell [2] was more than 0.201; with T-cell [5], 0.801 to 1. The compound also had a Kd at Cbl-b (residues 36-427) of 100 to 300 nM. The IC50 at Cbl-b [4] is 100 to 300 nM; on Cbl-b [6], not above 300 nM.
On to `C[C@H](Cc1nncn1C)c1cccc(N2Cc3c(ccnc3C(F)(F)F)C2=O)c1` [Compound 371, (R)-2-(3-(1-(4-methyl-4H-1,2,4-triazol-3-yl)propan-2-yl)phenyl)-4-(trifluoromethyl)-2,3-dihydro-1H-pyrrolo[3,4-c]pyridin-1-one], for which the figures for the fold induction at 0.3 µM in the test on T-cell [1] and with T-cell [3] were 1.01 to 1.3 and 1.01 to 2.5, respectively. Besides, the fold induction at 1 µM fell in the range of 1.01 to 1.3 in the test with T-cell [1], 0.101 to 0.15 with T-cell [2], 2.51 to 5 in the test with T-cell [3] and 0.801 to 1 with T-cell [5]. Also, the values for the fold induction at 4 µM with T-cell [1] and in the test with T-cell [3] were 1.01 to 1.3 and 5 to 7.5, respectively. Also, the fold induction at 8 µM in the test on T-cell [2] was more than 0.201; in the test on T-cell [5] it was more than 1. The Kd on Cbl-b (residues 36-427) lay in the range of 301 to 1000 nM. For the same compound, the values for the 50% inhibitory concentration (IC50) at Cbl-b [4] and on Cbl-b [6] were 100 to 300 nM and not above 300 nM, respectively.
Regarding `C[C@H](Cc1nncn1C)c1cccc(N2Cc3c(cc(C(C)(C)O)cc3C(F)(F)F)C2=O)c1` [Compound 374, (R)-6-(2-hydroxypropan-2-yl)-2-(3-(1-(4-methyl-4H-1,2,4-triazol-3-yl)propan-2-yl)phenyl)-4-(trifluoromethyl)isoindolin-1-one], the fold induction at 0.3 µM lay within 1.01 to 1.3 in the test with T-cell [1] and 2.51 to 5 in the test with T-cell [3]. The fold induction at 1 µM lay within 1.31 to 1.5 in the test with T-cell [1], 0.151 to 0.2 in the test with T-cell [2], 5 to 7.5 with T-cell [3] and 0.801 to 1 in the test on T-cell [5]. The results for the fold induction at 4 µM with T-cell [1] and in the test with T-cell [3] were 1.31 to 1.5 and more than 7.5, respectively. In addition, the figures for the fold induction at 8 µM in the test on T-cell [2] and in the test on T-cell [5] were more than 0.201 and more than 1, respectively. The compound also displayed a Kd at Cbl-b (residues 36-427) of 100 to 300 nM. Also, the figures for the IC50 on Cbl-b [4] and at Cbl-b [6] were less than 100 nM and not above 100 nM, respectively.
In the case of `C[C@@H]1[C@@H](c2nncn2C)[C@H]1c1cccc(N2Cc3c(cccc3C(F)(F)F)C2=O)c1` [Compound 375, 2-[3-[(1 S,2S,3R)-2-methyl-3-(4-methyl-4H-1,2,4-triazol-3-yl)cyclopropyl]phenyl]-4-(trifluoromethyl)-2,3-dihydro-1H-isoindol-1-one], the fold induction at 0.3 µM lay within 1.01 to 1.3 with T-cell [1] and 2.51 to 5 with T-cell [3]. Further, the fold induction at 1 µM in the test with T-cell [1] was 1.31 to 1.5; in the test on T-cell [2], more than 0.201; with T-cell [3], 5 to 7.5; with T-cell [5], more than 1. Moreover, the fold induction at 4 µM in the test on T-cell [1] was 1.31 to 1.5; in the test with T-cell [3] it was more than 7.5. The values for the fold induction at 8 µM in the test on T-cell [2] and with T-cell [5] were more than 0.201 and more than 1, respectively. The same compound came in with a Kd on Cbl-b (residues 36-427) of less than 100 nM. For the same compound, the IC50 on Cbl-b [4] was less than 100 nM; at Cbl-b [6], not above 100 nM.
